Assay results from US7547709B2, “Chain-breaking antioxidants” (Vanderbilt University, priority 2004, dated 2009).
Where two headings read alike, the source gives them in different places. Marks after values point to notes of the source that are not given here.

How the values were obtained:
[1] = Burton et al. 1985; cited from earlier work
[2] = design: key: Not an air-stable compound; settings: Table 2, column (iv); cited from earlier work
[3] = for O—H BDE, absolute measured value (±2 SD): EPR equilibration; for O—H BDE, absolute measured value (±2 SD) / Experimental substituent effect on O—H BDE, 5-pyrimidinols (vi): solution phase; for O—H BDE: O—H bond dissociation enthalpy: Table A; for Experimental substituent effect on O—H BDE, 5-pyrimidinols (vi): 298 K, relative to unsubstituted (vi)
[4] = for k/alkyl: second order rate constant for reaction with alkyl radicals: Table A
[5] = Reaction with peroxyl radicals, oxygen consumption in inhibited autoxidation of styrene; assay type: physicochemical; settings: for k/peroxyl: second order rate constant for reaction with peroxyl radicals: Table A; for Rate constant for reaction with peroxyl radicals: benzene, 323 K; for Rate constants with peroxyl radicals, pyrimidinol versus phenolic counterpart: (vi)/(iv) pair
[6] = open atmosphere
[7] = solution phase, 298 K, from ref 2C, cited from earlier work; for Experimental substituent effect on O—H BDE, phenols (iv): relative to unsubstituted (iv)
[8] = benzene, 298 K, reported in ref 12, cited from earlier work

CCN1CCCc2c(C)c(O)c(C)c(C)c21 [Formula 3b]
Reactivity with peroxyl radicals compared to tocopherol, in words [1]: react slowly with peroxyl radicals

Cc1cc(N(C)C)cc(C)c1O [iv-d]
Air stability, footnote letter in place of O—H BDE [2]: d

Oc1cncnc1 [Example 1, 5-Pyrimidinol]
O—H BDE: O—H bond dissociation enthalpy (estimate) ([3]; Estimate based upon other results to date for other 5-pyrimidinols): 91.3^a | k/alkyl: second order rate constant for reaction with alkyl radicals [4]: 3.6 × 10^6

Cc1nc(N(C)C)nc(C)c1O [Example 5, 2-N,N-Dimethylamino-4,6-dimethyl-5-pyrimidinol]
k/peroxyl: second order rate constant for reaction with peroxyl radicals [5]: 8.6 ± 0.5 × 10^6 | Rate constant for reaction with peroxyl radicals [5]: 8.6 ± 0.5 × 10^6f M^−1 s^−1 | Deuterium kinetic isotope effect (kH/kD), peroxyl radicals ([5]; dry solvents containing D2O): 3.1 | O—H BDE, absolute measured value (±2 SD) [3]: 78.16 ± 0.25 kcal/mol | O—H BDE: O—H bond dissociation enthalpy [3]: 78.2 | O—H BDE difference versus a-TOH, experiment ([3]; relative to a-TOH): -0.1 kcal/mol | Experimental substituent effect on O—H BDE, 5-pyrimidinols (vi) [3]: -12.9 kcal/mol | k/alkyl: second order rate constant for reaction with alkyl radicals [4]: 2.9 ± 1.1 × 10^6 | Rate constant for reaction with alkyl radicals ([4]; benzene, 298 K, 5-hexenyl radical clock (H)): 2.9 ± 1.1 × 10^6 (H) M^−1 s^−1 | Rate of reaction with alkyl radicals relative to α-TOH ([4]; versus α-TOH): 5 times | Stability to air oxidation, in words [6]: without degradation by air oxidation

Cc1nc(C)c(O)c(C)n1 [Example 2, 2,4,6-Trimethyl-5-pyrimidinol]
Rate constants with peroxyl radicals, pyrimidinol versus phenolic counterpart [5]: ≤ 3 | k/peroxyl: second order rate constant for reaction with peroxyl radicals [5]: 3.3 ± 0.4 × 10^4 | Rate constant for reaction with peroxyl radicals [5]: 3.3 ± 0.4 × 10^4 M^−1 s^−1 | O—H BDE, absolute measured value (±2 SD) [3]: 85.2 ± 0.5 kcal/mol | O—H BDE: O—H bond dissociation enthalpy [3]: 85.2 | Experimental substituent effect on O—H BDE, 5-pyrimidinols (vi) [3]: -5.9 kcal/mol | k/alkyl: second order rate constant for reaction with alkyl radicals [4]: 4.6 × 10^5 | Rate constant for reaction with alkyl radicals (estimate) ([4]; benzene, 298 K, neophyl clock (N), estimate from correlations of k and β for CH3CN, EtOAc, t-BuOH): 4.6 × 10^5 (N)^c,d M^−1 s^−1 | Deuterium kinetic isotope effect (kH/kD), alkyl radicals ([4]; dry solvents containing D2O): 3.1

COc1nc(C)c(O)c(C)n1 [Example 4, 2-Methoxy-4,6-dimethyl-5-pyrimidinol]
O—H BDE: O—H bond dissociation enthalpy [3]: 82.5

Oc1ccccc1 [iv, phenol]
O—H BDE of unsubstituted phenol, absolute value [7]: (88.3) kcal/mol

Cc1cc(C)c(O)c(C)c1 [iv-b]
Rate constant for reaction with peroxyl radicals [5]: 1.1 ± 0.1 × 10^5 M^−1 s^−1 | Experimental substituent effect on O—H BDE, phenols (iv) [7]: -5.6 kcal/mol | Rate constant for reaction with alkyl radicals ([8]; neophyl clock (N)): 8.5 ± 0.2 × 10^4 (N)^e M^−1 s^−1

Cc1cc(C(C)(C)C)c(O)c(C(C)(C)C)c1 [iv-c]
Rate constant for reaction with peroxyl radicals [5]: 1.8 ± 0.3 × 10^4 M^−1 s^−1 | Experimental substituent effect on O—H BDE, phenols (iv) [7]: -7.3 kcal/mol | Rate constant for reaction with alkyl radicals ([8]; neophyl clock (N)): 4.8 ± 1.5 × 10^3 (N)^e M^−1 s^−1

α-tocopherol [a-TOH (1)]
Rate constant for reaction with peroxyl radicals [5]: 4.1 ± 0.4 × 10^6 M^−1 s^−1 | Experimental substituent effect on O—H BDE, phenols (iv) [7]: −10.0^c kcal/mol | Rate constant for reaction with alkyl radicals ([8]; 5-hexenyl clock (H)): 6.0 ± 1.5 × 10^5 (H)^e M^−1 s^−1

Cc1nc(C(C)(C)C)c(O)c(C(C)(C)C)n1 [Example 3, 2-Methyl-4,6-di-tert-butyl-5-pyrimidinol]
Rate constants with peroxyl radicals, pyrimidinol versus phenolic counterpart [5]: roughly the same | k/peroxyl: second order rate constant for reaction with peroxyl radicals [5]: 2.2 ± 0.3 × 10^4 | Rate constant for reaction with peroxyl radicals [5]: 2.2 ± 0.3 × 10^4 M^−1 s^−1 | O—H BDE, absolute measured value (±2 SD) [3]: 84.10 ± 0.25 kcal/mol | O—H BDE: O—H bond dissociation enthalpy [3]: 84.1 | Experimental substituent effect on O—H BDE, 5-pyrimidinols (vi) [3]: -7.0 kcal/mol | k/alkyl: second order rate constant for reaction with alkyl radicals [4]: 3.2 ± 0.5 × 10^4 | Rate constant for reaction with alkyl radicals ([4]; benzene, 298 K, neophyl radical clock (N)): 3.2 ± 0.5 × 10^4 (N) M^−1 s^−1
